This is an account of results in patent US11279681B2, “3-alkyl bicyclic [4,5,0] hydroxamic acids as HDAC inhibitors” (Valo Health, Inc., priority 2015, dated 2022).

pIC50: −log10 of the molar value.

The target in this test is T1, HDAC6 (Homo sapiens, UniProt Q9UBN7).
T1 sequence (Q9UBN7 1-1215): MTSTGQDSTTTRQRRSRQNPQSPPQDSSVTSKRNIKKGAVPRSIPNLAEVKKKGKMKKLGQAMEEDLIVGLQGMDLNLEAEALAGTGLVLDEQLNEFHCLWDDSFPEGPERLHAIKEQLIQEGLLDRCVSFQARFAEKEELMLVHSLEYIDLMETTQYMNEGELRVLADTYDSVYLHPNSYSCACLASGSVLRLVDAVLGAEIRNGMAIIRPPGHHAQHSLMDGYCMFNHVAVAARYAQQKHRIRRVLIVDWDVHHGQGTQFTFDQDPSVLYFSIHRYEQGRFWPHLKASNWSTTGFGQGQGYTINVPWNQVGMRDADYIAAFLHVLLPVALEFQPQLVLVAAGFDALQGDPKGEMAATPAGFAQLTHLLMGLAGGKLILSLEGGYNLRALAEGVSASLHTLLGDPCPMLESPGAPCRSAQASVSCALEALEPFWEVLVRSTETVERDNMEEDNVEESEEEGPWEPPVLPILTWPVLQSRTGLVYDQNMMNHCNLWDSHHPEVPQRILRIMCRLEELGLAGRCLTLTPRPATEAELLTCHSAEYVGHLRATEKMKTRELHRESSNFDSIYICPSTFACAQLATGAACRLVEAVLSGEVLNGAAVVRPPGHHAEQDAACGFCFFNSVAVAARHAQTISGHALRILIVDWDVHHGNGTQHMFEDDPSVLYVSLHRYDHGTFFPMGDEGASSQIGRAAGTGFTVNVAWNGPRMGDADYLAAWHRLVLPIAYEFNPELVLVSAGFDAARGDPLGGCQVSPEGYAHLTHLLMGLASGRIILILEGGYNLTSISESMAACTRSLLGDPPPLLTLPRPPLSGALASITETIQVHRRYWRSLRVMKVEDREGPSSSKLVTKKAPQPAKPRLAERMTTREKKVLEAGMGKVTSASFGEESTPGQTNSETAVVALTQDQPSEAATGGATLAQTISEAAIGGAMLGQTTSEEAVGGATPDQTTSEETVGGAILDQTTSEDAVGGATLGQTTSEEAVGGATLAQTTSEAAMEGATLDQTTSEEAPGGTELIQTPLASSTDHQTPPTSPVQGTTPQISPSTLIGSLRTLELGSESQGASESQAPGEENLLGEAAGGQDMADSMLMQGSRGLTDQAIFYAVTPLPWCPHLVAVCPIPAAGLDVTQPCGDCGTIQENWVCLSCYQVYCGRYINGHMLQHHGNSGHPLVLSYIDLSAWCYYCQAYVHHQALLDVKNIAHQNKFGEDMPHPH
Description: In vitro histone deacetylase assay: enzymatic HDAC6 electrophoretic mobility shift assay. The format is biochemical. The conditions noted are these: full length human recombinant HDAC6, 1 nM enzyme, 2 μM peptide substrate RHKK(Ac)-NH2, 25° C.; read-out: Inhibitory Concentration (IC50) Values for Representative Compounds against HDAC6, Activity Range. How it is done:
The enzymatic HDAC6 assay was performed using electrophoretic mobility shift assay. […] The enzymatic reactions were assembled in 384 well plates in a total volume of 25 μL in a reaction buffer composing: 100 mM HEPES, pH7.5, 25 mM KCl, 0.1% bovine serum albumin, 0.01% Triton X-100, 1% DMSO (from compounds) 2 μM of the fluorescently labeled peptide substrate and enzyme. The enzyme was added at a final concentration of 1 nM. The peptide substrate RHKK(Ac)-NH2 was used. The compounds were tested at 12 concentrations spaced by 3× dilution intervals. Negative control samples (0%-inhibition in the absence of inhibitor) and positive control samples (100%-inhibition) were assembled in replicates of four in each assay plate. The reactions were incubated at 25° C. and quenched by the addition of 45 μL of termination buffer (100 mM HEPES, pH 7.5, 0.01% Triton X-100, 0.05% SDS).
The terminated assay plates were analyzed on LabChip® 3000 microfluidic electrophoresis instrument (Perkin Elmer/Caliper Life Sciences). The fluorescence intensity of the electrophoretically separated de-acetylated product and substrate peptide was measured. Activity in each sample was determined as the product to sum ratio (PSR): P/(S+P), where P is the peak height of the product peptide and S is the peak height of the substrate peptide. Percent inhibition (Pinh) is determined using the following equation:
Pinh=(PSR0%−PSRinh)/(PSR0%−PSR100%)*100, where PSRinh is the product sum ratio in the presence of inhibitor, PSR0% is the average product sum ration in the absence of inhibitor and PSR100% is the average product sum ratio in 100%-inhibition control samples. The IC50 values of inhibitors were determined by fitting the %-inhibition curves with 4 parameter dose-response model using XLfit 4 software.
For orientation: A gel shift assay detects complexes by their altered migration in electrophoresis.

Consider `COc1ccc(CN2CCOc3cc(C(=O)NO)ccc3C2)nc1`, for which the pIC50 is 6.30 to 7.00.
To `O=C(NO)c1ccc2c(c1)OCCN(c1cccnc1)C2` [N-hydroxy-4-(pyridin-3-yl)-2,3,4,5-tetrahydrobenzo[f][1,4]oxazepine-8-carboxamide] belongs 6.30 to 7.00; to `O=C1CN(Cc2cccc(Oc3ccccc3)c2)Cc2cc(C(=O)NO)ccc2N1`, 6.30 to 7.00.
For the compound `CC(C)c1ccc(CN2CC(=O)Nc3ccc(C(=O)NO)cc3C2)nc1`, the pIC50 is 6.30 to 7.00.
To `CC(C)[C@@H]1COc2cc(C(=O)NO)ccc2CN1` belongs at least 7.00; to `C[C@H]1COc2cc(C(=O)NO)ccc2CN1c1ccc(OC(F)(F)F)cc1` [(S)-N-hydroxy-3-methyl-4-(4-(trifluoromethoxy)phenyl)-2,3,4,5-tetrahydrobenzo[f][1,4]oxazepine-8-carboxamide], 6.30 to 7.00; to `Cc1ccccc1N1Cc2ccc(C(=O)NO)cc2OC[C@@H]1C` [(S)-N-hydroxy-3-methyl-4-(o-tolyl)-2,3,4,5-tetrahydrobenzo[f][1,4]oxazepine-8-carboxamide], at least 7.00.
To `COC[C@@H]1CN(C(=O)Nc2ccc(OC)cc2)Cc2ccc(C(=O)NO)cc2O1` [(S)-N8-hydroxy-2-(methoxymethyl)-N4-(4-methoxyphenyl)-2,3-dihydrobenzo[f][1,4]oxazepine-4,8(5H)-dicarboxamide] belongs 6.30 to 7.00.
To `COc1ccc(S(=O)(=O)N2Cc3ccc(C(=O)NO)cc3O[C@@H](C)C2)cc1` belongs under 6.30; to `COC[C@@H]1COc2cc(C(=O)NO)ccc2CN1Cc1ccc(OC)cc1` [(R)-N-hydroxy-4-(4-methoxybenzyl)-3-(methoxymethyl)-2,3,4,5-tetrahydrobenzo[f][1,4]oxazepine-8-carboxamide], at least 7.00.
As for `COC1CCN(C(=O)N2Cc3ccc(C(=O)NO)cc3OC[C@@H]2C)CC1` [(S)-N-hydroxy-4-(4-methoxypiperidine-1-carbonyl)-3-methyl-2,3,4,5-tetrahydrobenzo[f][1,4]oxazepine-8-carboxamide], the pIC50 was at least 7.00.
As for `C[C@H]1CN(c2ccccc2)Cc2ccc(C(=O)NO)cc2O1`, the pIC50 was under 6.30.
To `COc1ccc(CN2Cc3ccc(C(=O)NO)cc3OCC23CC3)cc1` [N-hydroxy-4-(4-methoxybenzyl)-4,5-dihydro-2H-spiro[benzo[f][1,4]oxazepine-3,1′-cyclopropane]-8-carboxamide] belongs at least 7.00; to `COc1ccc(NC(=O)N2Cc3ccc(C(=O)NO)cc3OC[C@H]2C(C)C)cc1`, 6.30 to 7.00; to `COCCNC(=O)N1Cc2ccc(C(=O)NO)cc2OC[C@@H]1C` [(S)-N8-hydroxy-N4-(2-methoxyethyl)-3-methyl-2,3-dihydrobenzo[f][1,4]oxazepine-4,8(5H)-dicarboxamide], at least 7.00.
To `O=C1CN(Cc2nc3ccccc3[nH]2)Cc2cc(C(=O)NO)ccc2N1` belongs at least 7.00; to `O=C1CN(Cc2nccs2)Cc2cc(C(=O)NO)ccc2N1`, under 6.30.
Consider `COc1ccc(CCN2CCOc3cc(C(=O)NO)ccc3C2=O)cc1`, for which the pIC50 was 6.30 to 7.00.
As for `COc1ccc(CN2Cc3ccc(C(=O)NO)cc3OC[C@@H]2C)cc1`, the pIC50 is at least 7.00.
To `COCCn1c(N2CCOc3ccc(C(=O)NO)cc3C2)nc2ccccc21` belongs 6.30 to 7.00; to `COc1ccc(CN2CCOc3cc(C(=O)NO)ccc3C2)cc1`, 6.30 to 7.00.
To `CC(C)[C@H]1COc2cc(C(=O)NO)ccc2CN1c1ccccn1` [(S)-N-hydroxy-3-isopropyl-4-(pyridin-2-yl)-2,3,4,5-tetrahydrobenzo[f][1,4]oxazepine-8-carboxamide] belongs at least 7.00.
On to `COc1ccc(CN2Cc3ccc(C(=O)NO)cc3OC[C@H]2C(C)C)cc1`, for which the pIC50 was at least 7.00.
In the case of `COc1ccc(S(=O)(=O)N2CCOc3cc(C(=O)NO)cnc3C2)cc1`, the pIC50 was 6.30 to 7.00.
To `COc1ccc(NC(=O)N2Cc3ccc(C(=O)NO)cc3OC[C@@H]2C(C)C)cc1` belongs at least 7.00.
To `C[C@H]1COc2cc(C(=O)NO)ccc2CN1C(=O)N(C)C1CCOCC1` [(S)-N8-hydroxy-N4,3-dimethyl-N4-(tetrahydro-2H-pyran-4-yl)-2,3-dihydrobenzo[f][1,4]oxazepine-4,8(5H)-dicarboxamide] belongs at least 7.00; to `O=C1CN(Cc2cc(F)cc(F)c2)Cc2cc(C(=O)NO)ccc2N1`, 6.30 to 7.00.
On to `CCOC(=O)N1Cc2ccc(C(=O)NO)cc2OC[C@@H]1C` [ethyl(S)-8-(hydroxycarbamoyl)-3-methyl-2,3-dihydrobenzo[f][1,4]oxazepine-4(5H)-carboxylate], for which the pIC50 was at least 7.00.
To `O=C1CN(Cc2cn3ccccc3n2)Cc2cc(C(=O)NO)ccc2N1` belongs at least 7.00; to `CC1COCCN1C(=O)N1CCOc2cc(C(=O)NO)ccc2C1` (stereo not shown) [N-hydroxy-4-(3-methylmorpholine-4-carbonyl)-2,3,4,5-tetrahydrobenzo[f][1,4]oxazepine-8-carboxamide], 6.30 to 7.00.
As to `O=C(NO)c1ccc2c(c1)OCCN(c1ccccc1)C2` [N-hydroxy-4-phenyl-2,3,4,5-tetrahydrobenzo[f][1,4]oxazepine-8-carboxamide], the pIC50 was under 6.30.
To `COCCN1CCOc2cc(C(=O)NO)ccc2C1` [N-hydroxy-4-(2-methoxyethyl)-2,3,4,5-tetrahydrobenzo[f][1,4]oxazepine-8-carboxamide] belongs 6.30 to 7.00.
Regarding `CC1COCCN1C(=O)N1Cc2ccc(C(=O)NO)cc2OC[C@@H]1C` (stereo partly drawn) [(3S)-N-hydroxy-3-methyl-4-(3-methylmorpholine-4-carbonyl)-2,3,4,5-tetrahydrobenzo[f][1,4]oxazepine-8-carboxamide], the pIC50 is at least 7.00.
To `CC(=O)N1CCCC(CN2CC(=O)Nc3ccc(C(=O)NO)cc3C2)C1` (stereo not shown) belongs under 6.30.
To `CC(C)[C@@H]1COc2cc(C(=O)NO)ccc2CN1C` belongs at least 7.00.
`O=C(NO)c1ccc2c(c1)OCCNC2` [N-hydroxy-2,3,4,5-tetrahydrobenzo[f][1,4]oxazepine-8-carboxamide]: the pIC50 was 6.30 to 7.00.
For `O=C(NO)c1ccc2c(c1)OCCN(c1ccccn1)C2` [N-hydroxy-4-(pyridin-2-yl)-2,3,4,5-tetrahydrobenzo[f][1,4]oxazepine-8-carboxamide], the pIC50 was 6.30 to 7.00.
For `O=C1CN(Cc2cccc(OC(F)(F)F)c2)Cc2cc(C(=O)NO)ccc2N1`, the pIC50 is 6.30 to 7.00.
To `CC(C)[C@H]1COc2cc(C(=O)NO)ccc2CN1c1cccnc1` [(S)-N-hydroxy-3-isopropyl-4-(pyridin-3-yl)-2,3,4,5-tetrahydrobenzo[f][1,4]oxazepine-8-carboxamide] belongs at least 7.00; to `O=C1CN(Cc2coc(-c3cccc(F)c3)n2)Cc2cc(C(=O)NO)ccc2N1`, at least 7.00.
To `COc1ccc(CN2CCOc3ccc(C(=O)NO)cc3C2)cn1` belongs under 6.30; to `COC[C@@H]1COc2cc(C(=O)NO)ccc2CN1C` [(R)-N-hydroxy-3-(methoxymethyl)-4-methyl-2,3,4,5-tetrahydrobenzo[f][1,4]oxazepine-8-carboxamide], at least 7.00.
To `O=C1CN(Cc2ccc(-n3cccn3)cc2)Cc2cc(C(=O)NO)ccc2N1` belongs at least 7.00.
